Tested on: Phospho-eIF2α (Ser51)
Assay: Phospho-eIF2α (Ser51) Sandwich ELISA in K562 cells
Type: cell-based
Details: serum-free RPMI, 10 μM compound; for activity at 10 µM: Homo sapiens, K562, 6 h, control = 1, read-out: eIF2α phosphorylation, absorbance standardized to control (DMSO-treated) set to 1, at 10 μM
Description: Pathscan Phospho-eIF2α (Ser51) Sandwich ELISA Kit #7286 from Cell signaling was used. The K562 cell line was cultured in serum-free RPMI medium at 37° C. in the presence of 5% CO2. Cells were treated with test compounds at a concentration of 10 μM. Six hours after compound treatment, the cells were lysed with a lysis buffer included in the kit to obtain 50 μg of protein by quantification. Afterwards, ELISA assay was performed according to the manufacturer's protocol to obtain absorbance. The absorbance for each obtained compound was standardized to a value of which the control (DMSO-treated) is set to 1.

| Structure (SMILES) | activity at 10 µM [%] | eIF2α phosphorylation, absorbance standardized to control (DMSO-treated) set to 1, at 10 μM (6 hours, control = 1) |
| --- | --- | --- |
| CC(C)(C)c1ccc(Nc2c(N[C@H]3CC[C@H](Oc4ccc([N+](=O)[O-])cc4)CC3)c(=O)c2=O)cc1 [Compound 52, 3-((4-(tert-Butyl)phenyl)amino)-4-(((1,4-trans)-4-(4-nitrophenoxy)cyclohexyl)amino)cyclobut-3-ene-1,2-dione] | 77 |  |
| CS(=O)(=O)c1ccc(O[C@H]2CC[C@H](Nc3c(Nc4ccccc4C(F)(F)F)c(=O)c3=O)CC2)cc1 [Compound 73, 3-(((1,4-trans)-4-(4-(Methylsulfonyl)phenoxy)cyclohexyl)amino)-4-((2-(trifluoromethyl)phenyl)amino)cyclobut-3-ene-1,2-dione] | 84 |  |
| CC(C)(C)c1ccc(Nc2c(N[C@H]3CC[C@H](Oc4ccc(C(F)(F)F)cc4)CC3)c(=O)c2=O)cc1 [Compound 50, 3-((4-(tert-Butyl)phenyl)amino)-4-(((1,4-trans)-4-(4-(trifluoromethyl)phenoxy)cyclohexyl)amino)cyclobut-3-ene-1,2-dione] | 204 |  |
| NS(=O)(=O)c1ccc(O[C@H]2CC[C@H](Nc3c(Nc4cccc(F)c4)c(=O)c3=O)CC2)cc1 [Compound 17, 4-(((1,4-trans)-4-((2-((3-Fluorophenyl)amino)-3,4-dioxocyclobut-1-en-1-yl)amino)cyclohexyl)oxy)benzenesulfonamide] | 86 |  |
| COC(=O)c1ccc(Nc2c(N[C@H]3CC[C@H](Oc4ccc(S(C)(=O)=O)cc4)CC3)c(=O)c2=O)cc1 [Compound 61, Methyl 4-((2-(((1,4-trans)-4-(4-(methylsulfonyl)phenoxy)cyclohexyl)amino)-3,4-dioxocyclobut-1-en-1-yl)amino)benzoate] | 148 |  |
| CC(C)(C)c1ccccc1Nc1c(N[C@H]2CC[C@H](Oc3ccc(C#N)cc3)CC2)c(=O)c1=O [Compound 75, 4-(((1,4-trans)-4-((2-((2-(tert-Butyl)phenyl)amino)-3,4-dioxocyclobut-1-en-1-yl)amino)cyclohexyl)oxy)benzonitrile] | 162 |  |
| COC(=O)c1ccc(Nc2c(N[C@H]3CC[C@H](Oc4ccc(C#N)cc4)CC3)c(=O)c2=O)cc1 [Compound 59, Methyl 4-((2-(((1,4-trans)-4-(4-cyanophenoxy)cyclohexyl)amino)-3,4-dioxocyclobut-1-en-1-yl)amino)benzoate] | 83 |  |
| CC(C)(C)c1ccc(Nc2c(N[C@H]3CC[C@H](Oc4ccc(S(C)(=O)=O)cc4)CC3)c(=O)c2=O)cc1 [Compound 53, 3-((4-(tert-Butyl)phenyl)amino)-4-(((1,4-trans)-4-(4-(methylsulfonyl)phenoxy)cyclohexyl)amino)cyclobut-3-ene-1,2-dione] | 133 |  |
| COC(=O)c1ccc(Nc2c(N[C@H]3CC[C@H](Oc4ccc(C(F)(F)F)cc4)CC3)c(=O)c2=O)cc1 [Compound 58, Methyl 4-((3,4-dioxo-2-(((1,4-trans)-4-(4-(trifluoromethyl)phenoxy)cyclohexyl)amino)cyclobut-1-en-1-yl)amino)benzoate] | 97 |  |
| COC(=O)c1ccc(Nc2c(N[C@H]3CC[C@H](Oc4ccc([N+](=O)[O-])cc4)CC3)c(=O)c2=O)cc1 [Compound 60, Methyl 4-((2-(((1,4-trans)-4-(4-nitrophenoxy)cyclohexyl)amino)-3,4-dioxocyclobut-1-en-1-yl)amino)benzoate] | 97 |  |
| COc1ccc(Nc2c(N[C@H]3CC[C@H](Oc4ccc(C(F)(F)F)cc4)CC3)c(=O)c2=O)cc1 [Compound 54, 3-((4-Methoxyphenyl)amino)-4-(((1,4-trans)-4-(4-(trifluoromethyl)phenoxy)cyclohexyl)amino)cyclobut-3-ene-1,2-dione] | 182 |  |
| CS(=O)(=O)c1ccc(O[C@H]2CC[C@H](Nc3c(Nc4ccccc4Cl)c(=O)c3=O)CC2)cc1 [Compound 69, 3-((2-Chlorophenyl)amino)-4-(((1,4-trans)-4-(4-(methylsulfonyl)phenoxy)cyclohexyl)amino)cyclobut-3-ene-1,2-dione] | 101 |  |
| O=c1c(Nc2ccccc2F)c(N[C@H]2CC[C@H](Oc3ccc(C(F)(F)F)cc3)CC2)c1=O [Compound 62, 3-((2-Fluorophenyl)amino)-4-(((1,4-trans)-4-(4-(trifluoromethyl)phenoxy)cyclohexyl)amino)cyclobut-3-ene-1,2-dione] | 182 |  |
| CS(=O)(=O)c1ccc(O[C@H]2CC[C@H](Nc3c(Nc4cccc(Cl)c4)c(=O)c3=O)CC2)cc1 [Compound 21, 3-((3-Chlorophenyl)amino)-4-(((1,4-trans)-4-(4-(methylsulfonyl)phenoxy)cyclohexyl)amino)cyclobut-3-ene-1,2-dione] | 77 |  |
| CS(=O)(=O)c1ccc(O[C@H]2CC[C@H](Nc3c(Nc4ccccc4F)c(=O)c3=O)CC2)cc1 [Compound 65, 3-((2-Fluorophenyl)amino)-4-(((1,4-trans)-4-(4-(methylsulfonyl)phenoxy)cyclohexyl)amino)cyclobut-3-ene-1,2-dione] |  | 1.07 |
| CC(C)(C)c1ccccc1Nc1c(N[C@H]2CC[C@H](Oc3ccc([N+](=O)[O-])cc3)CC2)c(=O)c1=O [Compound 76, 3-((2-(tert-Butyl)phenyl)amino)-4-(((1,4-trans)-4-(4-nitrophenoxy)cyclohexyl)amino)cyclobut-3-ene-1,2-dione] | 139 |  |
| NS(=O)(=O)c1ccc(O[C@H]2CC[C@H](Nc3c(Nc4ccccc4)c(=O)c3=O)CC2)cc1 [Compound 12, 4-(((1,4-trans)-4-((3,4-Dioxo-2-(phenylamino)cyclobut-1-en-1-yl)amino)cyclohexyl)oxy)benzenesulfonamide] | 81 |  |
| COc1ccc(Nc2c(N[C@H]3CC[C@H](Oc4ccc([N+](=O)[O-])cc4)CC3)c(=O)c2=O)cc1 [Compound 56, 3-((4-Methoxyphenyl)amino)-4-(((1,4-trans)-4-(4-nitrophenoxy)cyclohexyl)amino)cyclobut-3-ene-1,2-dione] | 227 |  |
| N#Cc1ccc(O[C@H]2CC[C@H](Nc3c(Nc4ccccc4F)c(=O)c3=O)CC2)cc1 [Compound 63, 4-(((1,4-trans)-4-((2-((2-Fluorophenyl)amino)-3,4-dioxocyclobut-1-en-1-yl)amino)cyclohexyl)oxy)benzonitrile] | 75 |  |
| COc1ccccc1Nc1c(N[C@H]2CC[C@H](Oc3ccc([N+](=O)[O-])cc3)CC2)c(=O)c1=O [Compound 80, 3-((2-Methoxyphenyl)amino)-4-(((1,4-trans)-4-(4-nitrophenoxy)cyclohexyl)amino)cyclobut-3-ene-1,2-dione] | 133 |  |
| O=c1c(Nc2ccc(F)cc2)c(N[C@H]2CC[C@H](Oc3ccc(C(F)(F)F)cc3)CC2)c1=O [Compound 38, 3-((4-Fluorophenyl)amino)-4-(((1,4-trans)-4-(4-(trifluoromethyl)phenoxy)cyclohexyl)amino)cyclobut-3-ene-1,2-dione] | 65 |  |
| O=c1c(Nc2ccc(Cl)cc2)c(N[C@H]2CC[C@H](Oc3ccc(C(F)(F)F)cc3)CC2)c1=O [Compound 42, 3-((4-Chlorophenyl)amino)-4-(((1,4-trans)-4-(4-(trifluoromethyl)phenoxy)cyclohexyl)amino)cyclobut-3-ene-1,2-dione] | 93 |  |
| CS(=O)(=O)c1ccc(O[C@H]2CC[C@H](Nc3c(Nc4ccccc4)c(=O)c3=O)CC2)cc1 [Compound 11, 3-(((1,4-trans)-4-(4-(Methylsulfonyl)phenoxy)cyclohexyl)amino)-4-(phenylamino)cyclobut-3-ene-1,2-dione] | 94 |  |
| N#Cc1ccc(O[C@H]2CC[C@H](Nc3c(Nc4ccc(Cl)cc4)c(=O)c3=O)CC2)cc1 [Compound 43, 4-(((1,4-trans)-4-((2-((4-Chlorophenyl)amino)-3,4-dioxocyclobut-1-en-1-yl)amino)cyclohexyl)oxy)benzonitrile] | 87 |  |
| CS(=O)(=O)c1ccc(O[C@H]2CC[C@H](Nc3c(Nc4ccc(F)cc4)c(=O)c3=O)CC2)cc1 [Compound 41, 3-((4-Fluorophenyl)amino)-4-(((1,4-trans)-4-(4-(methylsulfonyl)phenoxy)cyclohexyl)amino)cyclobut-3-ene-1,2-dione] | 62 |  |
| NS(=O)(=O)c1ccc(O[C@H]2CC[C@H](Nc3c(Nc4cccc(Cl)c4)c(=O)c3=O)CC2)cc1 [Compound 22, 4-(((1,4-trans)-4-((2-((3-Chlorophenyl)amino)-3,4-dioxocyclobut-1-en-1-yl)amino)cyclohexyl)oxy)benzenesulfonamide] | 219 |  |
| O=c1c(Nc2ccccc2)c(N[C@H]2CC[C@H](Oc3ccc(C(F)(F)F)cc3)CC2)c1=O [Compound 8, 3-(Phenylamino)-4-(((1,4-trans)-4-(4-(trifluoromethyl)phenoxy)cyclohexyl)amino)cyclobut-3-ene-1,2-dione] | 95 |  |
| O=c1c(Nc2ccccc2)c(N[C@H]2CC[C@H](Oc3ccc([N+](=O)[O-])cc3)CC2)c1=O [Compound 10, 3-(((1,4-trans)-4-(4-Nitrophenoxy)cyclohexyl)amino)-4-(phenylamino)cyclobut-3-ene-1,2-dione] | 84 |  |
| O=c1c(Nc2ccccc2Cl)c(N[C@H]2CC[C@H](Oc3ccc(C(F)(F)F)cc3)CC2)c1=O [Compound 66, 3-((2-Chlorophenyl)amino)-4-(((1,4-trans)-4-(4-(trifluoromethyl)phenoxy)cyclohexyl)amino)cyclobut-3-ene-1,2-dione] | 159 |  |
| N#Cc1ccc(O[C@H]2CC[C@H](Nc3c(Nc4ccc(C(F)(F)F)cc4)c(=O)c3=O)CC2)cc1 [Compound 47, 4-(((1,4-trans)-4-((3,4-Dioxo-2-((4-(trifluoromethyl)phenyl)amino)cyclobut-1-en-1-yl)amino)cyclohexyl)oxy)benzonitrile] | 51 |  |

— patent US20240261249A1, “NOVEL SQUARAMIDE DERIVATIVE AND USE THEREOF” (PUSAN NATIONAL UNIVERSITY INDUSTRY-UNIVERSITY COOPERATION …, priority 2021, published 2024)
